The subject of assay [1] is TNFα. Kind of assay: cells. To be noted: Homo sapiens, Monocyte, LPS-stimulated human monocytes, TNFα content; read-out: EC50 TNF. In kind it is cell-based, human.
In assay [2] the target is IRAK4 enzyme (Homo sapiens (Human), UniProt Q9NWZ3). Kind of assay: biochemical. The class given is biochemical. The note with it: IRAK4 enzyme, TR-FRET, 500 μM ATP.

Bounds are passed on as bounds.

Sequence of IRAK4 enzyme (Q9NWZ3 whole entry): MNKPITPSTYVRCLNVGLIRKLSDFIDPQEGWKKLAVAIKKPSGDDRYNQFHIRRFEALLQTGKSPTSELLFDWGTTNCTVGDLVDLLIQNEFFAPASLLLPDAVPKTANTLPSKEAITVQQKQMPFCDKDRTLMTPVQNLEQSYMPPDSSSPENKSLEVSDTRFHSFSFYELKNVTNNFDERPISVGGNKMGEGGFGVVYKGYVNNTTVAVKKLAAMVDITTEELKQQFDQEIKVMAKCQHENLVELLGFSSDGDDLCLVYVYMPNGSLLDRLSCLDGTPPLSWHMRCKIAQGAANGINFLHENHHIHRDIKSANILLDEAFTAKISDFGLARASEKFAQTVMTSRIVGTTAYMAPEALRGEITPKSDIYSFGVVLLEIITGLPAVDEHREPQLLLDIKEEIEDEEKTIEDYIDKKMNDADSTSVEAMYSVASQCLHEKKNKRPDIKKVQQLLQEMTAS

On to `CC(C)(O)[C@H](F)CNC(=O)c1cnc(-c2ccc3cc(C#N)cnn23)cc1N[C@@H]1C[C@@H]2CN(S(C)(=O)=O)C[C@@H]2C1` [Example 247, 6-(3-cyanopyrrolo[1,2-b]pyridazin-7-yl)-N-((R)-2-fluoro-3-hydroxy-3-methylbutyl)-4-(((3aR,5r,6aS)-2-(methylsulfonyl)octahydro-cyclopenta[c]pyrrol-5-yl)amino)nicotinamide], for which the EC50 in assay [1] amounted to 0.262 µM. Further, 0.006 µM corresponded to half-maximal inhibition in assay [2] (IC50).

As for `CC(C)(O)[C@H](F)CNC(=O)c1cnc(-c2ccc3cc(C#N)cnn23)cc1N[C@H]1C[C@H]2CNC[C@H]2C1` [Example 248, 6-(3-cyanopyrrolo[1,2-b]pyridazin-7-yl)-N-((R)-2-fluoro-3-hydroxy-3-methyl-butyl)-4-(((3aR,5r,6aS)-octahydrocyclopenta[c]pyrrol-5-yl)amino) nicotinamide], the EC50 in assay [1] amounted to 0.545 µM. For the same molecule, half-maximal inhibition in assay [2] (IC50) was put at 0.003 µM.

Consider `CC(=O)N1C[C@H]2C[C@H](Nc3cc(-c4ccc5cc(C#N)cnn45)ncc3C(=O)NC[C@@H](F)C(C)(C)O)C[C@H]2C1` [Example 249, 4-(((3aR,5s,6aS)-2-acetyl-octahydrocyclopenta[c]pyrrol-5-yl)amino)-6-(3-cyanopyrrolo[1,2-b]pyridazin-7-yl)-N-((R)-2-fluoro-3-hydroxy-3-methylbutyl) nicotinamide], for which the EC50 in assay [1] was 0.1 µM. Further, in assay [2], the IC50 was 0.002 µM.

Take `CC(C)(O)[C@H](F)CNC(=O)c1cnc(-c2ccc3cc(C#N)cnn23)cc1N[C@H]1C[C@@H]2CN(S(C)(=O)=O)C[C@@H]2C1` [Example 250, 6-(3-cyanopyrrolo[1,2-b]pyridazin-7-yl)-N-((R)-2-fluoro-3-hydroxy-3-methylbutyl)-4-(((3aR,5s,6aS)-2-(methylsulfonyl)octa-hydrocyclopenta[c]pyrrol-5-yl)amino) nicotinamide]: the EC50 in assay [1] came out at 0.037 µM. Also, the IC50 in assay [2] was 0.001 µM.

`CC(C)(O)[C@H](F)CNC(=O)c1cnc(-c2ccc3cc(C#N)cnn23)cc1N[C@@H]1C[C@H]2CNC[C@H]2C1` [Example 251, 6-(3-cyanopyrrolo[1,2-b]pyridazin-7-yl)-N-((R)-2-fluoro-3-hydroxy-3-methylbutyl)-4-(((3aR,5s,6aS)-octa-hydrocyclopenta[c]pyrrol-5-yl)amino) nicotinamide]: the EC50 in assay [1] was determined as 0.117 µM. Also, the midpoint of inhibition in assay [2], the IC50, lay at 0.001 µM.

For the molecule `CC(C)Nc1cc(-c2ccc3cc(C#N)cnn23)ncc1C(=O)NCCC(C)(C)N` [Example 252, N-(3-amino-3-methyl-butyl)-6-(3-cyano-pyrrolo[1,2-b]pyridazin-7-yl)-4-(isopropylamino) nicotinamide], in assay [1], the EC50 amounted to 0.078 µM. For the same molecule, half-maximal inhibition in assay [2] (IC50) was put at 0.002 µM.

With `CC(=O)N1CCC[C@@H](Nc2cc(-c3ccc4cc(C#N)cnn34)ncc2C(=O)NC[C@@H](F)C(C)(C)O)C1` [Example 253, 4-(((R)-1-acetylpiperidin-3-yl)amino)-6-(3-cyano-pyrrolo[1,2-b]pyridazin-7-yl)-N-((R)-2-fluoro-3-hydroxy-3-methylbutyl)nicotinamide], the EC50 in assay [1] was 0.51 µM. Moreover, the IC50 in assay [2] worked out at 0.003 µM.

As to `CC(C)(O)[C@H](F)CNC(=O)c1cnc(-c2ccc3cc(C#N)cnn23)cc1N[C@@H]1CCCN(S(C)(=O)=O)C1` [Example 254, 6-(3-cyanopyrrolo[1,2-b]pyridazin-7-yl)-N-((R)-2-fluoro-3-hydroxy-3-methylbutyl)-4-(((R)-1-(methylsulfonyl)piperidin-3-yl)amino)nicotinamide], in assay [1], the EC50 is 2.02 µM. For the same molecule, the midpoint of inhibition in assay [2], the IC50, lay at 0.017 µM.

For `CC(C)(O)[C@H](F)CNC(=O)c1cnc(-c2ccc3cc(C#N)cnn23)cc1N[C@@H]1CCCNC1` [Example 255, 6-(3-cyanopyrrolo[1,2-b]pyridazin-7-yl)-N-((R)-2-fluoro-3-hydroxy-3-methylbutyl)-4-(((R)-piperidin-3-yl)amino)nicotinamide], the EC50 in assay [1] was 1.27 µM. The molecule further returned an IC50 in assay [2] of 0.014 µM.

For `CC(=O)N1CCC[C@H](Nc2cc(-c3ccc4cc(C#N)cnn34)ncc2C(=O)NC[C@@H](F)C(C)(C)O)C1` [Example 256, 4-(((S)-1-acetylpiperidin-3-yl)amino)-6-(3-cyano-pyrrolo[1,2-b]pyridazin-7-yl)-N-((R)-2-fluoro-3-hydroxy-3-methylbutyl)nicotinamide], the EC50 in assay [1] came to 0.389 µM. This molecule also displayed an IC50 in assay [2] of 0.002 µM.

As to `CC(C)(O)[C@H](F)CNC(=O)c1cnc(-c2ccc3cc(C#N)cnn23)cc1N[C@H]1CCCN(S(C)(=O)=O)C1` [Example 257, 6-(3-cyanopyrrolo[1,2-b]pyridazin-7-yl)-N-((R)-2-fluoro-3-hydroxy-3-methylbutyl)-4-(((S)-1-(methylsulfonyl)piperidin-3-yl)amino)nicotinamide], in assay [1], the EC50 came to 0.129 µM. For the same molecule, half-maximal inhibition in assay [2] (IC50) required 0.001 µM.

Take `CC(C)(O)[C@H](F)CNC(=O)c1cnc(-c2ccc3cc(C#N)cnn23)cc1N[C@H]1CCCNC1` [Example 258, 6-(3-cyanopyrrolo[1,2-b]pyridazin-7-yl)-N-((R)-2-fluoro-3-hydroxy-3-methylbutyl)-4-(((S)-piperidin-3-yl)amino)nicotinamide]: in assay [1], the EC50 came to 0.083 µM. In assay [2], the IC50 is 0.001 µM.

Regarding `CN1CCC[C@@H](Nc2cc(-c3ccc4cc(C#N)cnn34)ncc2C(=O)NC[C@@H](F)C(C)(C)O)C1` [Example 259, 6-(3-cyanopyrrolo[1,2-b]pyridazin-7-yl)-N-((R)-2-fluoro-3-hydroxy-3-methylbutyl)-4-(((R)-1-methylpiperidin-3-yl)amino)nicotinamide], the EC50 in assay [1] worked out at 0.152 µM. This molecule also yielded an IC50 in assay [2] of 0.006 µM.

Regarding `CN1CCC[C@H](Nc2cc(-c3ccc4cc(C#N)cnn34)ncc2C(=O)NC[C@@H](F)C(C)(C)O)C1` [Example 260, 6-(3-cyanopyrrolo[1,2-b]pyridazin-7-yl)-N-((R)-2-fluoro-3-hydroxy-3-methylbutyl)-4-(((S)-1-methylpiperidin-3-yl)amino)nicotinamide], the EC50 in assay [1] was found to be 0.165 µM. In assay [2], this molecule came in with an IC50 of 0.008 µM.

On to `CC(C)(O)[C@H](F)CNC(=O)c1cnc(-c2ccc3cc(C#N)cnn23)cc1N[C@H]1CCC[C@H]1O` [Example 261, 6-(3-cyanopyrrolo[1,2-b]pyridazin-7-yl)-N-((R)-2-fluoro-3-hydroxy-3-methylbutyl)-4-(((1S,2R)-2-hydroxycyclopentyl)amino)nicotinamide], for which the EC50 in assay [1] worked out at 0.041 µM. Also, in assay [2], the IC50 was < 0.001 µM.

Regarding `CC(C)(O)[C@H](F)CNC(=O)c1cnc(-c2ccc3cc(C#N)cnn23)cc1N[C@H]1CCC[C@@H]1O` [Example 262, 6-(3-cyanopyrrolo[1,2-b]pyridazin-7-yl)-N-((R)-2-fluoro-3-hydroxy-3-methylbutyl)-4-(((1S,2S)-2-hydroxycyclopentyl)amino)nicotinamide], the EC50 in assay [1] is 0.021 µM. The IC50 in assay [2] was < 0.001 µM.

`CC(C)(O)[C@H](F)CNC(=O)c1cnc(-c2ccc3cc(C#N)cnn23)cc1N[C@@H]1CN2CCC1CC2` [Example 263, 6-(3-cyanopyrrolo[1,2-b]pyridazin-7-yl)-N-((R)-2-fluoro-3-hydroxy-3-methylbutyl)-4-(((S)-quinuclidin-3-yl)amino)nicotinamide]: the EC50 in assay [1] was 0.193 µM. Moreover, the IC50 in assay [2] was found to be 0.003 µM.

Turning to `CC(C)(O)[C@H](F)CNC(=O)c1cnc(-c2ccc3cc(C#N)cnn23)cc1NC1CCC2(CCC(=O)N2)CC1` (stereo partly drawn) [Example 265, 6-(3-cyanopyrrolo[1,2-b]pyridazin-7-yl)-N-((R)-2-fluoro-3-hydroxy-3-methylbutyl)-4-(((5S,8s)-2-oxo-1-azaspiro[4.5]decan-8-yl)amino) nicotinamide], the EC50 in assay [1] was 0.69 µM. In addition, the IC50 in assay [2] was 0.002 µM.

In the case of `CC(C)(O)[C@H](F)CNC(=O)c1cnc(-c2ccc3cc(C#N)cnn23)cc1N[C@H]1CN2CCC1CC2` [Example 266, 6-(3-cyanopyrrolo[1,2-b]pyridazin-7-yl)-N-((R)-2-fluoro-3-hydroxy-3-methylbutyl)-4-(((R)-quinuclidin-3-yl)amino)nicotinamide], the EC50 in assay [1] was 7.59 µM. Moreover, 0.131 µM corresponded to half-maximal inhibition in assay [2] (IC50).

Regarding `COC(=O)NC12CCC(Nc3cc(-c4ccc5cc(C#N)cnn45)ncc3C(=O)NCC#N)(CC1)CC2` [Example 267, methyl (4-((5-((cyanomethyl)carbamoyl)-2-(3-cyanopyrrolo[1,2-b]pyridazin-7-yl)pyridin-4-yl)amino)bicyclo[2.2.2]octan-1-yl)carbamate], in assay [1], the EC50 was 0.019 µM. In addition, the 50% inhibitory concentration (IC50) in assay [2] was < 0.001 µM.

Turning to `COC(=O)N[C@H]1CC[C@H](Nc2cc(-c3ccc4cc(C#N)cnn34)ncc2C(=O)NCC#N)CC1` [Example 268, Methyl ((1R,4R)-4-((5-((cyanomethyl)carbamoyl)-2-(3-cyanopyrrolo[1,2-b]pyridazin-7-yl)pyridin-4-yl)amino)cyclohexyl)carbamate], the EC50 in assay [1] turned out to be 0.029 µM. Besides, the IC50 in assay [2] was < 0.001 µM.

Turning to `Cc1nnc(N[C@H]2CC[C@H](Nc3cc(-c4ccc5cc(C#N)cnn45)ncc3C(=O)NC[C@@H](F)C(C)(C)O)CC2)o1` [Example 269, 6-(3-cyanopyrrolo[1,2-b]pyridazin-7-yl)-N-((R)-2-fluoro-3-hydroxy-3-methylbutyl)-4-(((1R,4R)-4-((5-methyl-1,3,4-oxadiazol-2-yl)amino)cyclohexyl)amino)nicotinamide], the EC50 in assay [1] was 0.059 µM. This molecule also displayed an IC50 in assay [2] of 0.001 µM.

Turning to `COC(=O)NC12CCC(Nc3cc(-c4ccc5cc(C#N)cnn45)ncc3C(=O)NC3CCC(NC(=O)N4CCOCC4)CC3)(CC1)CC2` (stereo not drawn) [Example 270, methyl (4-((2-(3-cyano-pyrrolo[1,2-b]pyridazin-7-yl)-5-((4-(morpholine-4-carboxamido)cyclohexyl)carbamoyl)pyridin-4-yl)amino)bicyclo[2.2.2]octan-1-yl)carbamate], in assay [1], the EC50 stood at 0.049 µM. Also, the IC50 in assay [2] was 0.001 µM.

With `COC(=O)NC12CCC(Nc3cc(-c4ccc5cc(C#N)cnn45)ncc3C(=O)NC3CCC(NC(=O)C4CC4)CC3)(CC1)CC2` (stereo not drawn) [Example 271, methyl (4-((2-(3-cyano-pyrrolo[1,2-b]pyridazin-7-yl)-5-((4-(cyclopropane-carboxamido)cyclohexyl)carbamoyl)pyridin-4-yl)amino)bicyclo[2.2.2]octan-1-yl)carbamate], the EC50 in assay [1] amounted to 0.038 µM. This molecule also came in with an IC50 in assay [2] of 0.001 µM.

The values are drawn from patent US10336762B2 (priority 2017, dated 2019).
